What all share (assay type): binding, rabbits of the New Zealand variety
In assay [1] the test system is antiserums produced for sulphonamide-type antibiotics. In words: Direct ELISA format with HRP enzymatic tracers of competition haptens (preliminary studies). An excerpt:
Biological molecular receptors (antibodies) were designed and produced to analyse antibiotics from the family of sulfamides. The preparation of the biological receptors was approached by means of the design of immunization haptens using molecular modelling strategies. As a consequence of these studies, the synthesis of 2 haptens or antigens was proposed. One of them (hapten 1) kept the greater part of the structure of the sulfamides, while the second (hapten 2) was only a fragment which conserved the part common to most of the compounds of this family of antibiotics. The two haptens were combined to the HCH (horseshoe crab hemocyanin) protein and to the BSA (bovine serum albumin) protein by using methods described in the literature. The covalent bonding of the haptens or antigens and the quantification of the number of the remainder of antigens bonded to the protein was carried out by means of a mass spectrometer. Following this, rabbits of the New Zealand variety were immunised with these antigens by applying a six-month long immunisation protocol, during which the progress of the immune response was controlled by means of extracting small blood samples.
With the aim of evaluating the avidity of the antiserums produced by the sulphonamide-type antibiotics, it was necessary to establish a competitive-type immunochemical assay. […]
(In general: ELISA stands for enzyme-linked immunosorbent assay.)

In assay [2] the test system is specific sulfamide antiserum (#155). In words: Impedimetric immunosensor of the invention, competitive immunoassay calibrated with sulfapyridine. To be noted: Sensor; [Ab] 1/2000; [AT] 0.8 μg/ml (2d-BSA); from four-parameter fit of calibration curve. How it is done: Before proceeding to the functionalization, the electrodes were cleaned in a solution of 70% absolute ethanol and 30% Milli-Q water. Afterwards, the devices were submerged in a solution of 2.5% NaOH and Milli-Q water for 10 minutes, followed by a rinsing in 100 mL of Milli-Q water, in order to neutralize the action of the NaOH. Finally, the electrodes were cleaned in ethanol and dried in nitrogen current.
The electrodes were introduced into a GPTS [(3-glycidoxipropil) trimethoxisilane] solution with 2.5% ethanol anhydride for three hours, at ambient temperature and with orbital agitation. After this time had passed, the devices were washed in ethanol and dried in nitrogen current. […]
Biological molecular receptors (antibodies) were designed and produced to analyse antibiotics from the family of sulfamides. […] The covalent bonding of the haptens or antigens and the quantification of the number of the remainder of antigens bonded to the protein was carried out by means of a mass spectrometer. […]
Sulfapyridine pattern solutions prepared in PBST (0.64 nM-50000 nM, in PBST) were added to the electrodes (150 μL/electrode), followed by a solution with the specific sulfamide antiserum (#155) obtained (1/2000 in PBST, 150 μL/electrode). […] The reaction was measured in a low conductivity solution. […]

In assay [3] the test system is specific sulfamide antiserum. In words: ELISA immunoassay, calibration with sulfapyridine. To be noted: [Ab] 1/8000, [AT] 0.625 μg/ml, from four-parameter fit of calibration curve.

Each structure is given as a SMILES string. Converted amounts (≈) assume the structure as drawn.

For orientation: IC50 means the point on the concentration scale where inhibition reaches its midpoint. A high value points to lower potency. As to `Nc1ccc(S(=O)(=O)Nc2cnccn2)cc1` [sulfapyrazine], the IC50 in assay [1] is ~9 ng/mL (≈ 0.036 µM).

Consider `Nc1ccc(S(=O)(=O)Nc2ccccn2)cc1` [sulfapyridine], for which the IC50 in assay [2] came to 0.014 µM; in assay [3] it was 0.00929 µM.

The record behind these values is patent US8608919B2, “Impedimetric sensor and applications thereof” (Consejo Superior de Investigaciones Científicas, priority 2007, dated 2013).
